Results from US8012949B2, “Bisphosphonate compounds and methods with enhanced potency for multiple targets including FPPS, GGPPS, and DPPS” (The Board of Trustees of the University of Illinois, priority 2004, dated 2011).
pIC50: −log10 of the molar value. Like-named read-outs stand apart in the source and are kept apart here.

Columns and labels:
[1] = tested on: NCI-H460 (lung large cell); assay: NCI-H460 cell growth inhibition (MTT); type: cell-based, human; conditions: Table 1, experimental
Text: (§1) Cell Growth Inhibition Assays. […] A broth microdilution method was used to determine IC50 values for growth inhibition by each bisphosphonate. […] NBPs were typically initially dissolved in H2O (0.01 M) while NNBPs were typically dissolved in DMSO (0.01 M).
(§2) GraphPad PRISM® version 4.0 software for windows (GraphPad Software Inc., San Diego, Calif., www.graphpad.com) was used to fit the data to a rectangular hyperbolic function: I=(ImaxC)/(IC50+C); […]

[2] = tested on: MCF-7 (breast adenocarcinoma); assay: MCF-7 cell growth inhibition (MTT), incl. FOH/GGOH rescue; type: cell-based, human; conditions: for pIC50: read-out: IC50, MCF-7 tumor cell growth inhibition; for rescue from growth inhibition by geranylgeraniol (GGOH): GGOH 20 μM; for IC50: MCF7
Text: as §1
GraphPad PRISM® version 4.0 software for windows (GraphPad Software Inc., San Diego, Calif., www.graphpad.com) was used to fit the data to a rectangular hyperbolic function: I=(ImaxC)/(IC50+C);
For the “rescue” experiments, stock solutions of FOH or GGOH were prepared (in ethanol) and the requisite amounts added to the incubation media to produce a fixed 20 μM concentration.

[3] = Adsorption onto bone in vivo
Text: (§3) A potential drawback to the use of bisphosphonates in treating non-bone resorption diseases is expected to be that they would be rapidly adsorbed onto bone. […]

human FPPS = target: T1, human FPPS (Homo sapiens, UniProt P14324); assay: human FPPS enzyme inhibition; type: biochemical
T1 construct: made in house
T1 sequence (P14324 1-419): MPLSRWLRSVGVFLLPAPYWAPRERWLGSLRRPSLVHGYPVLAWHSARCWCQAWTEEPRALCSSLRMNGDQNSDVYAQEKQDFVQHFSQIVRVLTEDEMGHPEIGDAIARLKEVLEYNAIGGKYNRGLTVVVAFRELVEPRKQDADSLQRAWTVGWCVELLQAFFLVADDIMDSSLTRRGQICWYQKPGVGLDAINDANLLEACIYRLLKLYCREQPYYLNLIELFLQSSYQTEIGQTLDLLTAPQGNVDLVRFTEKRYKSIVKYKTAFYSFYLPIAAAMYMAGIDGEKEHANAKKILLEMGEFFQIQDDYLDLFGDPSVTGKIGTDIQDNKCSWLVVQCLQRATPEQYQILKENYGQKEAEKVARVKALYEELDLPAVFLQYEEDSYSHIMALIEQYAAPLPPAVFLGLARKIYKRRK
Text: (§4) To test our polypharmaceutical hypothesis, we expressed three enzymes: human FPPS, GGPPS and DPPS, and tested each for their inhibition by a series of bisphosphonates.

human DPPS = target: T2, human DPPS (Homo sapiens, UniProt Q5T2R2); assay: human DPPS enzyme inhibition; type: biochemical
T2 construct: made in house
T2 sequence (Q5T2R2 1-415): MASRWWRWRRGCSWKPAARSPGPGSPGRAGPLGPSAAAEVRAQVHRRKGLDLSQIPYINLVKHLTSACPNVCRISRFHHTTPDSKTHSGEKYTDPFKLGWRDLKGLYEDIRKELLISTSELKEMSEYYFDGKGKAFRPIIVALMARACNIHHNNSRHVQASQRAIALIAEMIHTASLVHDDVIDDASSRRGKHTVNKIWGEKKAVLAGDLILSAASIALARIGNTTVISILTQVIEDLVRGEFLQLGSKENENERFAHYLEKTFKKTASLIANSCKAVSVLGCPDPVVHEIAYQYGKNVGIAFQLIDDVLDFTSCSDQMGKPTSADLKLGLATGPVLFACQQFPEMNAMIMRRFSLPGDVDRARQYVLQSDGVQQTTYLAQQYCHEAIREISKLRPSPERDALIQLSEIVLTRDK
T2 sequence (Q86YH6 1-399 partner): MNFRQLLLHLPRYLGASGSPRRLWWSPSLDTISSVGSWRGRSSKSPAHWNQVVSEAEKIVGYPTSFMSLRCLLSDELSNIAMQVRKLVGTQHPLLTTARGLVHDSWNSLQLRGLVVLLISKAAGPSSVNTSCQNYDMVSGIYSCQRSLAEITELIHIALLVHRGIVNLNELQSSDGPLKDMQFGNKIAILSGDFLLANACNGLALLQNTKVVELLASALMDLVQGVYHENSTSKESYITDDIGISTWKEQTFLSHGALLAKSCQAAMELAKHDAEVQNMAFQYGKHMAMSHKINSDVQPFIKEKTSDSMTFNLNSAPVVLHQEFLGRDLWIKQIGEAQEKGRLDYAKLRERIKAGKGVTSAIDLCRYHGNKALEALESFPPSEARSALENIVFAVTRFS
Text: as §4

[4] = tested on: SF-268 (central nervous system glioblastoma); assay: SF-268 cell growth inhibition (MTT); type: cell-based, human; conditions: Table 1, experimental
Text: as §1, §2

Vγ2Vδ2 T cells = assay: γδ T cell activation (TNF-α release and proliferation); type: cell-based, human
Experimental: γδ T Cell Assays. Vγ2Vδ2 T cell TNF-α release and proliferation were performed basically as described previously^1. Briefly, to measure bioactivity for Vγ2Vδ2 T cells, the CD4^+ JN.24, CD4^+ HF.2, CD8αα^+ 12G12, or the CD4^−8^− HD.108 Vγ2Vδ2 T cell clones were stimulated with phosphoantigens in the presence of CP.EBV (an EBV transformed B cell line) for CD4^+ clones or Va-2 (a transformed fibroblast) for CD8αα^+ and CD4^−8^− clones. CP.EBV and Va-2 were fixed with 0.05% glutaraldehyde (EM grade, Sigma, Mo.) for use as APCs. […] Curve fitting minima for each experiment (e.g. TNF-α release from JN.24 cells) were determined using the Global Fitting technique, as implemented in Prism 4.0. Curve fitting maxima were optimized for each individual compound without the use of any constraints.

T. brucei FPPS = T. brucei FPPS inhibition; type: biochemical, Trypanosoma brucei; conditions: Table 9
SK-ES-1 sarcoma cells = assay: SK-ES-1 sarcoma mouse xenograft; conditions: daily intraperitoneal 5 μg, athymic nude mice, SK-ES-1 xenograft
bone resorption = assay: Bone resorption IC50
Text: as §3

MDA-MB-231 cells = assay: Matrigel invasion assay; type: cell-based, human
Text: Tumor cell invasiveness and in vivo results. […] .

SMILES | NCI-H460 pIC50 (M) [1] [M] | rescue from growth inhibition by geranylgeraniol (GGOH) [2] | MCF-7 pIC50 (M) ([2]; Table 1, experimental) | adsorption onto bone in vivo [3] | FPPS pKi (M) (human FPPS; Table 1, experimental) | effect on DPPS (human DPPS) | DPPS pKi (human DPPS; Table 1, experimental) | SF-268 pIC50 (M) [4] [M] | γδ T cell activation (Vγ2Vδ2 T cells) | pIC50 ([2]; Homo sapiens, MCF7, FIG. 2A) | reduction in tumor cell growth (SK-ES-1 sarcoma cells) | pIC50 (bone resorption) | other results
O=P(O)(O)C(O)(Cc1cccc(-c2cccc(NS(=O)(=O)c3ccc4ccccc4c3)c2)c1)P(=O)(O)O [BPH-675, 1-Hydroxy-2-[3′-(Naphthalene-2-sulfonylamino)-biphenyl-3-yl]ethylidene-1,1-bisphosphonic acid] | 5.3 | essentially fully rescued | 5.2 | only very weakly adsorbed | 5.9 | no effect | 6.5 | 5.2 | no effect at all | – | – | – | pIC50 ([2]; FIG. 2A): 5.30; effect on FPPS (human FPPS): no effect
N=C(N)NCC(O)(P(=O)(O)O)P(=O)(O)O [BPH-678] | 4.7 | – | 4.7 | – | 7.9 | – | 7.4 | 4.6 | – | – | – | – | MCF-7 Cell pIC50 (M) ([2]; Table 2, -log10(value, M)): 5.37 M; pIC50 (human FPPS; Table 9, read-out: H. sapiens FPPS IC50): 5.90; pIC50 (T. brucei FPPS): 4.59; γδ T Cell Avg pED50 (M) (Vγ2Vδ2 T cells; Table 2, -log10(value, M)): 4.22 M
CCCCCCCCCCOc1ccc[n+](CC(P(=O)([O-])O)P(=O)(O)O)c1 (centres unmarked) [BPH-715] | – | only a partial rescue | – | only very weakly adsorbed | – | – | – | – | potent activity | ~7.30 | even more pronounced (p=0.032 versus zoledronate) | ~6.10 | IC50 ([1]; Homo sapiens, NCI-H460, read-out: NCI-H460 pIC50 (converted)): 63.1 nM; rescue from growth inhibition by addition of farnesol ([2]; FOH fixed 20 μM): no rescue; IC50 ([2]; Homo sapiens, Table 1, experimental, read-out: MCF-7 pIC50 (converted)): 200 nM; IC50 ([2]; Homo sapiens, Table 2, -log10(value, M), read-out: MCF-7 Cell pIC50 (converted)): 107 nM; Ki (human FPPS; Table 1, experimental, read-out: FPPS pKi (converted)): 50.1 nM; Ki (human DPPS; Table 1, experimental, read-out: DPPS_pKi (converted)): 5.01 nM; IC50 ([4]; Homo sapiens, SF-268, read-out: SF-268 pIC50 (converted)): 100 nM; EC50 (Vγ2Vδ2 T cells; Homo sapiens, T-cell, Table 2, -log10(value, M), read-out: γδ T Cell Avg pED50 (converted)): 891 nM
CCCCCCCCCCCCOc1ccc[n+](CC(P(=O)(O)O)P(=O)(O)O)c1 [BPH-716] | – | – | – | – | – | – | – | – | – | – | – | – | pIC50 (MDA-MB-231 cells): ~7.52; fold more inhibitory than zoledronate, Matrigel invasion (MDA-MB-231 cells; versus zoledronate): about 1000 fold; γδ T cell activation EC50, times more active than Phosphostim (Vγ2Vδ2 T cells; versus Phosphostim (bromohydrin of IPP)): ~2 ×; γδ T cell activation, times more active than the most potent conventional bisphosphonates (Vγ2Vδ2 T cells; versus most potent conventional bisphosphonates): ~100 ×
O=P(O)(O)C(O)(Cn1ccnc1)P(=O)(O)O [zoledronate, reference compound] | – | – | – | – | – | inhibited | – | – | – | ~4.82 | significant (p<0.01) reduction in tumor cell growth versus control | ~7.15 | pIC50 (MDA-MB-231 cells; Homo sapiens): ~4.40; pIC50 (human DPPS): ~5.30
